{"source": "patent US9371527B2", "about": "“Compositions and methods related to protein displacement therapy for myotonic distrophy” (University of Rochester, priority 2006, dated 2016)", "key": {"[1]": {"system": "Titin, ZASP, Serca1 alternative splicing", "experiment": "RT-PCR of alternative splicing of other genes misregulated in DM1 after ClC-1 antisense morpholino", "format": "in vivo, HSA^LR mice", "settings": "HSA^LR TA muscle", "source_text": "HSA^LR and WT mice have the same (FVB) inbred strain background. […] FIGS. 25D and 25E show the percentage of ClC-1 splice products that include exon 7a is shown at 3 (D) and 8 (E) weeks following morpholino injection. Mean±s.d.; n=3 per group; **P<0.001; *P=0.035 antisense- versus invert-treated controls; t-test. […] ClC-1 mRNA level is expressed in arbitrary units relative to housekeeping gene RNA polymerase II transcription factor IIB. Mean±s.d.; n=3 per group; *P=0.06 for antisense vs invert-treated control; t-test.\nMice were sacrificed three or eight weeks after morpholino injection. TA muscles were removed and frozen in liquid nitrogen. Total RNA was isolated with TriReagent (Molecular Research Center). cDNA synthesis was primed with oligo dT as described previously (Mankodi, A., et al. (2002) Mol Cell 10:35-44). Assays for alternative splicing of ClC-1 and Titin were described previously (Mankodi, A., et al. (2002) Mol Cell 10:35-44; Lin, X., et al. (2006) Hum Mol Genet 15:2087-2097). Primer sequences were\nRT-PCR products (22 cycles) were separated on agarose gels, stained with SYBR green II, and scanned on a laser fluorimager (Molecular Dynamics). Band intensity was quantified using ImageQuant software. Total levels of ClC-1 mRNA were determined by quantitative real-time RT-PCR (Taqman, Applied Biosystems) relative to housekeeping gene RNA polymerase II transcription factor IIB."}, "ClC-1 protein [2]": {"system": "ClC-1 protein", "experiment": "ClC-1 immunofluorescence after ClC-1 antisense morpholino, HSA^LR TA muscle", "format": "in vivo, HSA^LR mice", "settings": "3 weeks after treatment, vs invert-treated control", "experimental": "The morpholino was complementary to the 3′ splice site of ClC-1 pre-mRNA. Muscle fibers are outlined by wheat germ agglutinin (wga) and nuclei are highlighted by DAPI. FIGS. 24D and 24 E show brightfield (D) and fluorescence (E) images of a single FDB fiber showing preferential nuclear localization of the antisense morpholino (post injection day 5). […] Bars=20 μM.\n(§1) Frozen transverse sections of TA muscle (10 μM) were stained with affinity-purified rabbit polyclonal anti-ClC-1 antibody (1:50; Alpha Diagnostic International) as previously described (Kanadia, R. N., et al. (2006) Proc Natl Acad Sci USA 103:11748-11753). Muscle sections from ClC-1 null mice and WT FVB mice served as negative and positive controls on each slide. Z-plane stacks consisting of 8 images separated by 0.25 μM were captured and deconvolved using Autoquant v9.3 software (Autoquant Imaging). Maximum-projection images were obtained using Metavue software (Universal Imaging Corporation). Exposure time and thresholding were identical for all comparisons of antisense vs. invert controls."}, "ClC-1 exon 7a": {"system": "ClC-1 exon 7a", "experiment": "RT-PCR of ClC-1 exon 7a splicing after antisense morpholino, Mbnl1^ΔE3/ΔE3 mice", "format": "in vivo", "settings": "TA muscle, 3 weeks, 20 μg", "experimental": "(§2) FIGS. 27A, 27B, 27C, 27D, and 27E show antisense morpholino represses exon 7a inclusion, restores ClC-1 protein expression, and rescues myotonia in Mbnl1^ΔE3/ΔE3 mice. […] Bar=20 μM. […] Mean±s.d.; n=3 per group; **P<0.0001 antisense- versus invert-treated control; ANOVA.\nTo examine the effects of AON in this model, antisense morpholino or invert control was injected into TA muscle of Mbnl1^ΔE3/ΔE3 mice.\nHSA^LR (Mankodi, A., et al. (2000) Science 289:1769-1773) or Mbnl1^ΔE3/ΔE3 mice (Kanadia, R. N., et al. (2003) Science 302:1978-1980) were anesthetized by intraperitoneal injection of 100 mg/kg ketamine, 10 mg/kg xylazine, and 3 mg/kg acepromazine. TA muscle was pretreated by intramuscular injection of bovine hyaluronidase (15 μl, 0.4 U/μl) (Sigma) (McMahon, J. M., et al. (2001) Gene Ther 8:1264-1270). Two hours later, 10 or 20 μg of morpholino in a total volume of 20 μl phosphate buffered saline (PBS) was injected using a 30-gauge needle. TA muscle was then electroporated using electrodes placed parallel to the long axis of the muscle. Electroporation parameters were 100 V/cm, 10 pulses at 1 Hz, and 20 ms duration per pulse. […] For experiments to determine the distribution of injected oligos, the antisense morpholino was labeled with carboxyfluorescein and cryosections of muscle (10 μM) were examined by fluorescence microscopy, with or without fixation in 4% paraformaldehyde. […]"}, "ClC-1 protein [3]": {"system": "ClC-1 protein", "experiment": "ClC-1 immunofluorescence, Mbnl1^ΔE3/ΔE3 mice", "format": "in vivo", "settings": "TA muscle, 3 weeks; listed as antisense morpholino", "experimental": "as §2, §1"}}, "data": [{"substance": "antisense 1: morpholino 5′-CCAGGCACGGTCTGCAACAGAGAAG-3′ targeting the 3′ splice site of ClC-1 exon 7a (all phosphorodiamidate morpholino (PMO))", "values": [{"measurement": "alternative splicing of Serca1", "setting": "[1]", "value": "nor did it correct the alternative splicing"}, {"measurement": "alternative splicing of ZASP", "setting": "[1]", "value": "nor did it correct the alternative splicing"}, {"measurement": "alternative splicing of Titin m-line exon 5", "setting": "[1]; listed as ClC-1 antisense morpholino", "value": "did not correct the misregulated alternative splicing of Titin m-line exon 5"}, {"measurement": "alternative splicing of Titin m-line exon 5", "setting": "[1]; listed as antisense morpholino", "value": "nor did it correct the alternative splicing"}, {"measurement": "sarcolemmal ClC-1 protein", "setting": "ClC-1 protein [2]; listed as antisense morpholino", "value": "increase of sarcolemmal ClC-1 protein"}, {"measurement": "sarcolemmal ClC-1 protein", "setting": "ClC-1 protein [2]; listed as morpholino AON", "value": "increased the level of ClC-1 protein in the sarcolemma"}, {"measurement": "ClC-1 exon 7a inclusion", "setting": "ClC-1 exon 7a; listed as antisense morpholino", "value": "repressed the inclusion of exon 7a"}, {"measurement": "ClC-1 exon 7a inclusion", "setting": "ClC-1 exon 7a; listed as antisense morpholino 1", "value": "reduced inclusion of exon 7a"}, {"measurement": "ClC-1 protein at the sarcolemma (immunofluorescence)", "setting": "ClC-1 protein [3]", "value": "increased the expression of ClC-1 protein at the sarcolemma"}]}]}
